In PubChem BioAssay AID1918949 (Molecular Pharmacology Branch, DTP, NCI, 2023):

Test system: K24384-001-R-PDC complex spheroid viability
Test: Anticancer human tumor K24384-001-R-PDC patient-derived pancreatic adenocarcinoma cell line growth inhibition
Settings: for IC50: curve of first compound; for viability, T/C: stronger effect = lower value
Procedure, shortened: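 Multicellular complex spheroids of tumor cells with human endothelial cells (HUVEC) and mesenchymal stem cells; the LSD1 inhibitor iadademstat was combined with standard-of-care or investigational agents. Top concentration at or near clinical Cmax, half-log dilutions; final DMSO ≤0.25%.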

[1] = second compound 0.1 µM, first compound 0.00316 µM
[2] = second compound 0.1 µM, first compound 0.01 µM
[3] = second compound 0.1 µM, first compound 0.0316 µM
[4] = second compound 0.1 µM, first compound 0.1 µM
[5] = second compound 0.316 µM, first compound 0.00316 µM
[6] = second compound 0.316 µM, first compound 0.01 µM
[7] = second compound 0.316 µM, first compound 0.0316 µM
[8] = second compound 0.316 µM, first compound 0.1 µM
[9] = second compound 1 µM, first compound 0.00316 µM
[10] = second compound 1 µM, first compound 0.01 µM
[11] = second compound 1 µM, first compound 0.0316 µM
[12] = second compound 1 µM, first compound 0.1 µM
[13] = second compound 3.16 µM, first compound 0.00316 µM
[14] = second compound 3.16 µM, first compound 0.01 µM
[15] = second compound 3.16 µM, first compound 0.0316 µM
[16] = second compound 3.16 µM, first compound 0.1 µM
[17] = second compound 10 µM, first compound 0.00316 µM
[18] = second compound 10 µM, first compound 0.01 µM
[19] = second compound 10 µM, first compound 0.0316 µM
[20] = second compound 10 µM, first compound 0.1 µM
[21] = second compound 0.1 µM, first compound 0.00949 µM
[22] = second compound 0.1 µM, first compound 0.03 µM
[23] = second compound 0.1 µM, first compound 0.0949 µM
[24] = second compound 0.1 µM, first compound 0.3 µM
[25] = second compound 0.316 µM, first compound 0.00949 µM
[26] = second compound 0.316 µM, first compound 0.03 µM
[27] = second compound 0.316 µM, first compound 0.0949 µM
[28] = second compound 0.316 µM, first compound 0.3 µM
[29] = second compound 1 µM, first compound 0.00949 µM
[30] = second compound 1 µM, first compound 0.03 µM
[31] = second compound 1 µM, first compound 0.0949 µM
[32] = second compound 1 µM, first compound 0.3 µM
[33] = second compound 3.16 µM, first compound 0.00949 µM
[34] = second compound 3.16 µM, first compound 0.03 µM
[35] = second compound 3.16 µM, first compound 0.0949 µM
[36] = second compound 3.16 µM, first compound 0.3 µM
[37] = second compound 10 µM, first compound 0.00949 µM
[38] = second compound 10 µM, first compound 0.03 µM
[39] = second compound 10 µM, first compound 0.0949 µM
[40] = second compound 10 µM, first compound 0.3 µM
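Also: spheroids exposed to agents for seven days before luminescence viability reading.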
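For viability, T/C in this document: 100% = DMSO vehicle control viability.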

For CC[C@@]1(O)C(=O)OCc2c1cc1n(c2=O)Cc2cc3c(CN(C)C)c(O)ccc3nc2-1 + NC1CCC(NC2CC2c2ccccc2)CC1, the IC50 (second compound 0.1 µM) was 89.9 nM, the IC50 (second compound 0.316 µM) was over 100 nM and the IC50 (second compound 1 µM) was 88.6 nM. For the same compound, the IC50 (second compound 3.16 µM) was 84.5 nM, the IC50 (second compound 10 µM) was over 100 nM and the viability, T/C (second compound 0.1 µM, first compound 0.000316 µM) was 93.1%. For the same compound, the viability, T/C (second compound 0.1 µM, first compound 0.001 µM) was 87.2%, the viability, T/C [1] was 77.6% and the viability, T/C [2] was 68.9%. It also gave a viability, T/C [3] of 61.2%, a viability, T/C [4] of 48.1% and a viability, T/C (second compound 0.316 µM, first compound 0.000316 µM) of 99.3%. For the same compound, the viability, T/C (second compound 0.316 µM, first compound 0.001 µM) was 81.2%, the viability, T/C [5] was 82.3% and the viability, T/C [6] was 84%. The viability, T/C [7] was 70.2%, the viability, T/C [8] was 49.6% and the viability, T/C (second compound 1 µM, first compound 0.000316 µM) was 89.5%. For the same compound, the viability, T/C (second compound 1 µM, first compound 0.001 µM) was 82.7%, the viability, T/C [9] was 75.5% and the viability, T/C [10] was 59%. The viability, T/C [11] was 54.6%, the viability, T/C [12] was 49% and the viability, T/C (second compound 3.16 µM, first compound 0.000316 µM) was 93.7%. The viability, T/C (second compound 3.16 µM, first compound 0.001 µM) was 91.8%, the viability, T/C [13] was 81% and the viability, T/C [14] was 77%. For the same compound, the viability, T/C [15] was 64.5%, the viability, T/C [16] was 47% and the viability, T/C (second compound 10 µM, first compound 0.000316 µM) was 101%. For the same compound, the viability, T/C (second compound 10 µM, first compound 0.001 µM) was 88.2%, the viability, T/C [17] was 88.7% and the viability, T/C [18] was 61.7%. The viability, T/C [19] was 53.9% and the viability, T/C [20] was 49.8%.

For COc1cc(C2c3cc4c(cc3C(OC3OC5COC(C)OC5C(O)C3O)C3COC(=O)C23)OCO4)cc(OC)c1O (stereo not given) + NC1CCC(NC2CC2c2ccccc2)CC1, the IC50 (second compound 0.1 µM) was 1330 nM, the IC50 (second compound 0.316 µM) was 1860 nM and the IC50 (second compound 1 µM) was 2650 nM. The IC50 (second compound 3.16 µM) was over 3000 nM, the IC50 (second compound 10 µM) was 2620 nM and the viability, T/C [21] was 91.2%. For the same compound, the viability, T/C [22] was 92.8%, the viability, T/C [23] was 86.4% and the viability, T/C [24] was 65.3%. It also gave a viability, T/C (second compound 0.1 µM, first compound 0.949 µM) of 55.9%, a viability, T/C (second compound 0.1 µM, first compound 3 µM) of 42.8% and a viability, T/C [25] of 107%. The viability, T/C [26] was 83.3%, the viability, T/C [27] was 79.7% and the viability, T/C [28] was 75.7%. The viability, T/C (second compound 0.316 µM, first compound 0.949 µM) was 57.2%, the viability, T/C (second compound 0.316 µM, first compound 3 µM) was 43.2% and the viability, T/C [29] was 98.4%. For the same compound, the viability, T/C [30] was 97.2%, the viability, T/C [31] was 69.3% and the viability, T/C [32] was 72.6%. It also gave a viability, T/C (second compound 1 µM, first compound 0.949 µM) of 59.6%, a viability, T/C (second compound 1 µM, first compound 3 µM) of 47.8% and a viability, T/C [33] of 87.8%. For the same compound, the viability, T/C [34] was 102%, the viability, T/C [35] was 67.9% and the viability, T/C [36] was 65%. For the same compound, the viability, T/C (second compound 3.16 µM, first compound 0.949 µM) was 57.9%, the viability, T/C (second compound 3.16 µM, first compound 3 µM) was 54% and the viability, T/C [37] was 88.2%. It also gave a viability, T/C [38] of 98.4%, a viability, T/C [39] of 90.1% and a viability, T/C [40] of 73.2%. It also gave a viability, T/C (second compound 10 µM, first compound 0.949 µM) of 66% and a viability, T/C (second compound 10 µM, first compound 3 µM) of 47.4%.

Nc1ccn(C2OC(CO)C(O)C2(F)F)c(=O)n1 (stereo not given) + NC1CCC(NC2CC2c2ccccc2)CC1 showed an IC50 (second compound 0.1 µM) of 57.9 nM, an IC50 (second compound 0.316 µM) of 49.6 nM and an IC50 (second compound 1 µM) of 44.5 nM. It also gave an IC50 (second compound 3.16 µM) of 87.6 nM, an IC50 (second compound 10 µM) of 53.2 nM and a viability, T/C (second compound 0.1 µM, first compound 0.000949 µM) of 77.4%. It also gave a viability, T/C (second compound 0.1 µM, first compound 0.003 µM) of 68.3%, a viability, T/C [21] of 67.8% and a viability, T/C [22] of 53.5%. It also gave a viability, T/C [23] of 46.8%, a viability, T/C [24] of 33% and a viability, T/C (second compound 0.316 µM, first compound 0.000949 µM) of 73.9%. It also gave a viability, T/C (second compound 0.316 µM, first compound 0.003 µM) of 72%, a viability, T/C [25] of 67.3% and a viability, T/C [26] of 52.9%. It also gave a viability, T/C [27] of 46%, a viability, T/C [28] of 39.5% and a viability, T/C (second compound 1 µM, first compound 0.000949 µM) of 85.9%. The viability, T/C (second compound 1 µM, first compound 0.003 µM) was 68.1%, the viability, T/C [29] was 62.4% and the viability, T/C [30] was 50.4%. For the same compound, the viability, T/C [31] was 48%, the viability, T/C [32] was 41.9% and the viability, T/C (second compound 3.16 µM, first compound 0.000949 µM) was 84.3%. It also gave a viability, T/C (second compound 3.16 µM, first compound 0.003 µM) of 77.5%, a viability, T/C [33] of 70.4% and a viability, T/C [34] of 59.9%. The viability, T/C [35] was 48.7%, the viability, T/C [36] was 41.3% and the viability, T/C (second compound 10 µM, first compound 0.000949 µM) was 66.7%. For the same compound, the viability, T/C (second compound 10 µM, first compound 0.003 µM) was 68.5%, the viability, T/C [37] was 69.3% and the viability, T/C [38] was 54.6%. It also gave a viability, T/C [39] of 45.8% and a viability, T/C [40] of 39.2%.

Nc1ncn(C2CC(O)C(CO)O2)c(=O)n1 (stereo not given) + NC1CCC(NC2CC2c2ccccc2)CC1 was tested, and the IC50 (second compound 0.1 µM) was over 1000 nM, the IC50 (second compound 0.316 µM) was over 1000 nM and the IC50 (second compound 1 µM) was over 1000 nM. The IC50 (second compound 3.16 µM) was over 1000 nM, the IC50 (second compound 10 µM) was over 1000 nM and the viability, T/C [1] was 78.3%. For the same compound, the viability, T/C [2] was 93.8%, the viability, T/C [3] was 80.4% and the viability, T/C [4] was 73.6%. The viability, T/C (second compound 0.1 µM, first compound 0.316 µM) was 79.5%, the viability, T/C (second compound 0.1 µM, first compound 1 µM) was 73.5% and the viability, T/C [5] was 88%. It also gave a viability, T/C [6] of 79.4%, a viability, T/C [7] of 87.4% and a viability, T/C [8] of 82.5%. The viability, T/C (second compound 0.316 µM, first compound 0.316 µM) was 76.2%, the viability, T/C (second compound 0.316 µM, first compound 1 µM) was 85.1% and the viability, T/C [9] was 88.4%. The viability, T/C [10] was 80.5%, the viability, T/C [11] was 82.6% and the viability, T/C [12] was 68.3%. The viability, T/C (second compound 1 µM, first compound 0.316 µM) was 78.6%, the viability, T/C (second compound 1 µM, first compound 1 µM) was 70.1% and the viability, T/C [13] was 89.8%. It also gave a viability, T/C [14] of 88%, a viability, T/C [15] of 105% and a viability, T/C [16] of 76.6%. It also gave a viability, T/C (second compound 3.16 µM, first compound 0.316 µM) of 59.7%, a viability, T/C (second compound 3.16 µM, first compound 1 µM) of 60.9% and a viability, T/C [17] of 92.9%. It also gave a viability, T/C [18] of 83.8%, a viability, T/C [19] of 87.8% and a viability, T/C [20] of 63.2%. It also gave a viability, T/C (second compound 10 µM, first compound 0.316 µM) of 73.7% and a viability, T/C (second compound 10 µM, first compound 1 µM) of 72.7%.
